Values of other authors in paper PMC9663925, “Phase I pharmacokinetic study of an oral, small-molecule MEK inhibitor tunlametinib in patients with advanced NRAS mutant melanoma” (Frontiers in Pharmacology, 2022).
Like-named read-outs stand apart in the source and are kept apart here. One block for each compound: values may come before it.

- Tmax (ref Infante et al., 2012): 1.0 to 2.08 h
SMILES: CC(=O)Nc1cccc(-n2c(=O)n(C3CC3)c(=O)c3c(Nc4ccc(I)cc4F)n(C)c(=O)c(C)c32)c1 [trametinib]

- Tmax (ref Adjei et al., 2008): 1.0 to 3 h
SMILES: Cn1cnc2c(F)c(Nc3ccc(Br)cc3Cl)c(C(=O)NOCCO)cc21 [selumetinib]

- Tmax (ref Bendell et al., 2017): 1.00 to 3.00 h
SMILES: Cn1cnc2c(F)c(Nc3ccc(Br)cc3F)c(C(=O)NOCCO)cc21 [binimetinib]

- Tmax (ref Rosen et al., 2016): 2.4 to 3 h
SMILES: O=C(c1ccc(F)c(F)c1Nc1ccc(I)cc1F)N1CC(O)([C@@H]2CCCCN2)C1 [cobimetinib]
